The text below walks through data of PMC12136037, “Type II kinase inhibitors that target Parkinson’s disease–associated LRRK2” (Science Advances, 2025).

Where two headings read alike, the source gives them in different places.

Common to all, as to assay: DSF 100 kinase selectivity screen;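 for dTm: compound tested at 20 µM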
Common to all, as to assay type: binding

Experiment [1] addresses T1, ~100 representative kinases (Homo sapiens, UniProt P17948).
T1 construct: Recombinant protein kinase domains with a concentration of 2 μM
The note with it: protein FLT1; average of three replicates. As to the method:
(§1) Recombinant protein kinase domains with a concentration of 2 μM were mixed with a 20 μM compound solution in dimethyl sulfoxide (DMSO), 20 mM Hepes (pH 7.5), and 500 mM NaCl. SYPRO Orange (5000×, Invitrogen) was added as a fluorescence probe (1μl/ml). Subsequently, temperature-dependent protein unfolding profiles were measured using the QuantStudio 5 realtime PCR machine (Thermo Fisher Scientific, Waltham, MA, USA). […] The temperature was raised with a step rate of 3°C/min. […] Differences in melting temperature are given as ΔTm values in degrees Celsius. […]

The target in experiment [2] is T2, ~100 representative kinases (Homo sapiens, UniProt P24941).
T2 construct: Recombinant protein kinase domains with a concentration of 2 μM
The note with it: Protein CDK2; average of three replicates. As to the method:
as §1

The target of experiment [3] is T3, ~100 representative kinases (Homo sapiens, UniProt P51813).
T3 construct: Recombinant protein kinase domains with a concentration of 2 μM
T3 sequence (P51813 1-675): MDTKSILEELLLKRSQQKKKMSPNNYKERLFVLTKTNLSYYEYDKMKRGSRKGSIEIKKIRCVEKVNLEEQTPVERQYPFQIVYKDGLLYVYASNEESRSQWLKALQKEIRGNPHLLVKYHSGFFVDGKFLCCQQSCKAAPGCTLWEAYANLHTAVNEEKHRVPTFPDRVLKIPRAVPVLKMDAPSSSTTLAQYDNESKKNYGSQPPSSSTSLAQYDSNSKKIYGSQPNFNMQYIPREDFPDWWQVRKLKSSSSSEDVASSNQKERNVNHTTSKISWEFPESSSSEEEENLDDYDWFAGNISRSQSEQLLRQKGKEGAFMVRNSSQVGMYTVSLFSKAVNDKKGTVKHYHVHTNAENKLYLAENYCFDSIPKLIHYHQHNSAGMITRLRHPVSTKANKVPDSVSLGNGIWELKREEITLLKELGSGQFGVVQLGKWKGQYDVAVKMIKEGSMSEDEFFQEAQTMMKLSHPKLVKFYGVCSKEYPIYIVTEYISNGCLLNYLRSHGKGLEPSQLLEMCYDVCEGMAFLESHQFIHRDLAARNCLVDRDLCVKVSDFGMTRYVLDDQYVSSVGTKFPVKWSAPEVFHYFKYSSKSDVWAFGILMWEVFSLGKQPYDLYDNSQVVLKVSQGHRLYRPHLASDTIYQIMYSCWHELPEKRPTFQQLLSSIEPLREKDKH
Conditions: Protein BMX; average of three replicates. As to the method: as §1

Experiment [4] deals with T4, ~100 representative kinases (Homo sapiens, UniProt Q13554).
T4 construct: Recombinant protein kinase domains with a concentration of 2 μM
T4 sequence (Q13554 whole entry, the tested form may be a part): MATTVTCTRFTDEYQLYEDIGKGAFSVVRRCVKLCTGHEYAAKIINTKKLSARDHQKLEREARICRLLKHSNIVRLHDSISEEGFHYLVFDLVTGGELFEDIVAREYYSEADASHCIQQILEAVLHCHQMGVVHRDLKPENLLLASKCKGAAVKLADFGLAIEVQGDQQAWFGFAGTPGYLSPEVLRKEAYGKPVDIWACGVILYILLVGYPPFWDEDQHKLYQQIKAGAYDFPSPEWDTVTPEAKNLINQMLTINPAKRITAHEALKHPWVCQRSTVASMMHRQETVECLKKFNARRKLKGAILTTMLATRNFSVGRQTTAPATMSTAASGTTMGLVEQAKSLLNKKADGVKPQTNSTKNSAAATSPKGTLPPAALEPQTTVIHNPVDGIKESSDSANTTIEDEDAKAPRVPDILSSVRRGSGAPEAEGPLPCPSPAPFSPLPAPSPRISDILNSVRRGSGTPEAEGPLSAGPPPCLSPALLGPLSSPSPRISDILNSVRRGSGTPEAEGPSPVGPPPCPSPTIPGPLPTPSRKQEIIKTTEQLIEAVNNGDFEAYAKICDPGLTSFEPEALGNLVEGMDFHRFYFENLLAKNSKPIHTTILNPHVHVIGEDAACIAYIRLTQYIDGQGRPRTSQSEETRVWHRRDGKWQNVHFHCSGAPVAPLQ
Conditions: Protein CAMK2B; average of three replicates. As for the experimental part: as §1

Experiment [5] concerns the target T5, ~100 representative kinases (Homo sapiens, UniProt Q13627).
T5 construct: Recombinant protein kinase domains with a concentration of 2 μM
The note with it: Protein DYRK1A; average of three replicates. As to the method:
as §1

Experiment [6] has as its target T6, ~100 representative kinases (Homo sapiens, UniProt Q92630).
T6 construct: Recombinant protein kinase domains with a concentration of 2 μM
T6 sequence (Q92630 1-601): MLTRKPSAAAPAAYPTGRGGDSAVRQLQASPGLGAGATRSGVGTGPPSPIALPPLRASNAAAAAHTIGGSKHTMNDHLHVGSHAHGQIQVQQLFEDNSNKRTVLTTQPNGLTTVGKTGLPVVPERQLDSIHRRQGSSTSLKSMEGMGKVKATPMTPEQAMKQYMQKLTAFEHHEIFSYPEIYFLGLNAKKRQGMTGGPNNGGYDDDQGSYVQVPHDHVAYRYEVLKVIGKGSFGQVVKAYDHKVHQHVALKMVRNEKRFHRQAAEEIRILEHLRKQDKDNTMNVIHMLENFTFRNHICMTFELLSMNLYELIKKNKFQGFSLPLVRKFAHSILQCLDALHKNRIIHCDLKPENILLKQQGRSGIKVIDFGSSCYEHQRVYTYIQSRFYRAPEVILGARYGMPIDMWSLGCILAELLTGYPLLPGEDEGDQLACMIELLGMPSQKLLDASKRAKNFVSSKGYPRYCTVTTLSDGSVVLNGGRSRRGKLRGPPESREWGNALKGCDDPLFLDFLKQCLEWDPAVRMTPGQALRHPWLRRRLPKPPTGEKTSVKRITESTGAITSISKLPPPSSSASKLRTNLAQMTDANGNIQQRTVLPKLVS
Conditions: Protein DYRK2; average of three replicates. As for the experimental part:
as §1

Experiment [7] addresses T7, ~100 representative kinases (Homo sapiens, UniProt Q99640).
T7 construct: Recombinant protein kinase domains with a concentration of 2 μM
T7 sequence (Q99640 1-499): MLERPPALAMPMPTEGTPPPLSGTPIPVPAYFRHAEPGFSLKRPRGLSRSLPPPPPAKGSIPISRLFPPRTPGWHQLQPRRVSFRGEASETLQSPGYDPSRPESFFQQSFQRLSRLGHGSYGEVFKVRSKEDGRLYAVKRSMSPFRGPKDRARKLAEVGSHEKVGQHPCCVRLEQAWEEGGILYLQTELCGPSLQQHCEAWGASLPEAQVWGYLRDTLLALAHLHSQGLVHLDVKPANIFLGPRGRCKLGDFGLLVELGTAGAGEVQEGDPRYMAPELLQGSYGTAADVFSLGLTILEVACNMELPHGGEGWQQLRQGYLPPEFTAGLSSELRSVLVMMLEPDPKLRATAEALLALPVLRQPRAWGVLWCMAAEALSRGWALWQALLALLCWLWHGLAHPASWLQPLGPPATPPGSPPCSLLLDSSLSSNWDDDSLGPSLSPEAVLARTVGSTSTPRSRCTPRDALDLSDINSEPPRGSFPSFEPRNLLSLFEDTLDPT
The note with it: protein PKMYT1; average of three replicates. As to the method: as §1

The target of experiment [8] is T8, ~100 representative kinases (Homo sapiens, UniProt Q9H4A3).
T8 construct: Recombinant protein kinase domains with a concentration of 2 μM
T8 sequence (Q9H4A3 whole entry, the tested form may be a part): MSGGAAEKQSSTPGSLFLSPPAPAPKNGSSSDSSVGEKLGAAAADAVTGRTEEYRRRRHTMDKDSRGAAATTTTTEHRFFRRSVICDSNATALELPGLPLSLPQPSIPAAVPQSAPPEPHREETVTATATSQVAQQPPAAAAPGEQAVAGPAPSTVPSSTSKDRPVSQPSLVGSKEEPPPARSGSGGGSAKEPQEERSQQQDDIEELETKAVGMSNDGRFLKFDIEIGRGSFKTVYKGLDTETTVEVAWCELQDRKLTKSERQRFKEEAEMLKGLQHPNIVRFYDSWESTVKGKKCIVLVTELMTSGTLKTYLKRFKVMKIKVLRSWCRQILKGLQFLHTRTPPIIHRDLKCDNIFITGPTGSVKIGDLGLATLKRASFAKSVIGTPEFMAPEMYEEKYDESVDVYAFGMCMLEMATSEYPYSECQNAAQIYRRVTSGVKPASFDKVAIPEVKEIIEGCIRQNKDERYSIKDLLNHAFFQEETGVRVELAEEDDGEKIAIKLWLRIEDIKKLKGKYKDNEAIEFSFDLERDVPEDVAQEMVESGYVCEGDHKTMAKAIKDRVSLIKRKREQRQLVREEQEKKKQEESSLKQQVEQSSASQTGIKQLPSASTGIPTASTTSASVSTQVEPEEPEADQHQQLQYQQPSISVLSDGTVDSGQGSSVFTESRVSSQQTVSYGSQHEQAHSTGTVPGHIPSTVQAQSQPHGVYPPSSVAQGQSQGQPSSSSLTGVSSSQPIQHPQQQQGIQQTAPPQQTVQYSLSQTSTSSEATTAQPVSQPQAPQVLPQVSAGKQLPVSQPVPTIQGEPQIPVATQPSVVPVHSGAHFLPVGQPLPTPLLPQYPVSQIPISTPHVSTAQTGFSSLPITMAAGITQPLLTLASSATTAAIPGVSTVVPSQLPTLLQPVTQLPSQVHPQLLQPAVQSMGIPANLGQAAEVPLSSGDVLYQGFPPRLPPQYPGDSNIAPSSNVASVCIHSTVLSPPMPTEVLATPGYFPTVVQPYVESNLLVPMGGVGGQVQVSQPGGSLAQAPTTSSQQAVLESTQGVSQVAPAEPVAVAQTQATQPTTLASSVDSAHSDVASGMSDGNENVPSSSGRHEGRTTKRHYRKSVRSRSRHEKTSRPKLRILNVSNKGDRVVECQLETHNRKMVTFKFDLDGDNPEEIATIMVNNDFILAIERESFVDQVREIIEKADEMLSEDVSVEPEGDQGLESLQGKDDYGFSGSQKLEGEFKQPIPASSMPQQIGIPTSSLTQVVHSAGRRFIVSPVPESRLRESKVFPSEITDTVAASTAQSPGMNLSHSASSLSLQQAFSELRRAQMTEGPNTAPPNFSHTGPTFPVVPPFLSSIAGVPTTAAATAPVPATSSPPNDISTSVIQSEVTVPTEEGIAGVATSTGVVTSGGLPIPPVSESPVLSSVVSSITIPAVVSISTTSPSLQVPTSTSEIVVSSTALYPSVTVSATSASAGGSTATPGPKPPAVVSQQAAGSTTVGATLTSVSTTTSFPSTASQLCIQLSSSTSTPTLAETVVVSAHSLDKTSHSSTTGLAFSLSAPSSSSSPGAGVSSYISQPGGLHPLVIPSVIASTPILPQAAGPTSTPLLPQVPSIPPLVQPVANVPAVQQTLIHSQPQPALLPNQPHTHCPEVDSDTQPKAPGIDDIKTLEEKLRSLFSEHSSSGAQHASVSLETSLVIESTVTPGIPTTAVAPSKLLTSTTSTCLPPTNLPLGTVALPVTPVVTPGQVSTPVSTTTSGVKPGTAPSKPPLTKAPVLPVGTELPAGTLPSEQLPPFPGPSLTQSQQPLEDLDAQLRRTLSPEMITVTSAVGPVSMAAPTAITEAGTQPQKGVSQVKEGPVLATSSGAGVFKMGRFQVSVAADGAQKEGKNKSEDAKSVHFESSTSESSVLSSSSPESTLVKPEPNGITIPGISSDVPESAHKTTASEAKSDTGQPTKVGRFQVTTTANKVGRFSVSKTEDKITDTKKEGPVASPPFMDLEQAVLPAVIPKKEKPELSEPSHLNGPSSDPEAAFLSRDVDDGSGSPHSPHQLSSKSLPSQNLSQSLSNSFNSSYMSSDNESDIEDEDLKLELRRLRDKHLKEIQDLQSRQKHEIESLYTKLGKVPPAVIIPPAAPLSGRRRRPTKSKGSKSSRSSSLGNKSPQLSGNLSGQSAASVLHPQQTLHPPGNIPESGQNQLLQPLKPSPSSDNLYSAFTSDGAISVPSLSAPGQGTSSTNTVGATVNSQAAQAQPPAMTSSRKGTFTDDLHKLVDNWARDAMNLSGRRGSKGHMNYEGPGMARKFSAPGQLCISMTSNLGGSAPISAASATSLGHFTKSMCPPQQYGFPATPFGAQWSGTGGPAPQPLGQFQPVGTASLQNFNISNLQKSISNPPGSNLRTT
Conditions: Protein WNK1; DSF; average of three replicates. As to the method: as §1

Experiment [9] concerns the target T9, ~100 representative kinases (Homo sapiens, UniProt Q9NSY1).
T9 construct: Recombinant protein kinase domains with a concentration of 2 μM
Conditions: Protein BMP2K; average of three replicates. As to the method: as §1

Experiment [10] concerns the target T10, ~100 representative kinases (Homo sapiens, UniProt Q9Y2H1).
T10 construct: Recombinant protein kinase domains with a concentration of 2 μM
The note with it: Protein STK38L; DSF; average of three replicates. As to the method: as §1

Experiment [11] concerns ~100 representative kinases. The note with it: for dTm: Protein BRD, average of three replicates. As to the method:
as §1

Experiment [12] has as its target T11, ~100 representative kinases (Homo sapiens, UniProt P49674).
T11 construct: Recombinant protein kinase domains with a concentration of 2 μM
Conditions: Protein CSNK1E; average of three replicates. As for the experimental part: as §1

The target of experiment [13] is T12, ~100 representative kinases (Homo sapiens, UniProt Q9UPE1).
T12 construct: Recombinant protein kinase domains with a concentration of 2 μM
T12 sequence (Q9UPE1 whole entry, the tested form may be a part): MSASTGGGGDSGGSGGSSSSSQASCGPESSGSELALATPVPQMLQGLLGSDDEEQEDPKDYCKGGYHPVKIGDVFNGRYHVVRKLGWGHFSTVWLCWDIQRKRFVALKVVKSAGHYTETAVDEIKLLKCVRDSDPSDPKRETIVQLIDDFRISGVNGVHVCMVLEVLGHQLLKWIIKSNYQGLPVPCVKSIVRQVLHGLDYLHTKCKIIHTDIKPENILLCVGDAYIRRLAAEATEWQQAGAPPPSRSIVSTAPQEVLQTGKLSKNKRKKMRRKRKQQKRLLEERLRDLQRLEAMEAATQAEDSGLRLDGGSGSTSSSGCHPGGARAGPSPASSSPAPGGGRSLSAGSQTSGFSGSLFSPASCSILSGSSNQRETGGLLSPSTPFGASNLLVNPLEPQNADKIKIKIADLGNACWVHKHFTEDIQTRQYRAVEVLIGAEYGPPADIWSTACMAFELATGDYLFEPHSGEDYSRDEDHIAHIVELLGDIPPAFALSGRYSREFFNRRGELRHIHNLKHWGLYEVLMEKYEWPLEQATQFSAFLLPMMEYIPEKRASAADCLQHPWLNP
The note with it: Protein SRPK3; DSF; average of three replicates. As to the method:
as §1

[14] abbreviates: number of proteins of the DSF panel with dTm >5K.
Setting [15] is: selectivity score: # >5K divided by # of proteins tested in the DSF panel.

T9 sequence (Q9NSY1 whole entry, the tested form may be a part): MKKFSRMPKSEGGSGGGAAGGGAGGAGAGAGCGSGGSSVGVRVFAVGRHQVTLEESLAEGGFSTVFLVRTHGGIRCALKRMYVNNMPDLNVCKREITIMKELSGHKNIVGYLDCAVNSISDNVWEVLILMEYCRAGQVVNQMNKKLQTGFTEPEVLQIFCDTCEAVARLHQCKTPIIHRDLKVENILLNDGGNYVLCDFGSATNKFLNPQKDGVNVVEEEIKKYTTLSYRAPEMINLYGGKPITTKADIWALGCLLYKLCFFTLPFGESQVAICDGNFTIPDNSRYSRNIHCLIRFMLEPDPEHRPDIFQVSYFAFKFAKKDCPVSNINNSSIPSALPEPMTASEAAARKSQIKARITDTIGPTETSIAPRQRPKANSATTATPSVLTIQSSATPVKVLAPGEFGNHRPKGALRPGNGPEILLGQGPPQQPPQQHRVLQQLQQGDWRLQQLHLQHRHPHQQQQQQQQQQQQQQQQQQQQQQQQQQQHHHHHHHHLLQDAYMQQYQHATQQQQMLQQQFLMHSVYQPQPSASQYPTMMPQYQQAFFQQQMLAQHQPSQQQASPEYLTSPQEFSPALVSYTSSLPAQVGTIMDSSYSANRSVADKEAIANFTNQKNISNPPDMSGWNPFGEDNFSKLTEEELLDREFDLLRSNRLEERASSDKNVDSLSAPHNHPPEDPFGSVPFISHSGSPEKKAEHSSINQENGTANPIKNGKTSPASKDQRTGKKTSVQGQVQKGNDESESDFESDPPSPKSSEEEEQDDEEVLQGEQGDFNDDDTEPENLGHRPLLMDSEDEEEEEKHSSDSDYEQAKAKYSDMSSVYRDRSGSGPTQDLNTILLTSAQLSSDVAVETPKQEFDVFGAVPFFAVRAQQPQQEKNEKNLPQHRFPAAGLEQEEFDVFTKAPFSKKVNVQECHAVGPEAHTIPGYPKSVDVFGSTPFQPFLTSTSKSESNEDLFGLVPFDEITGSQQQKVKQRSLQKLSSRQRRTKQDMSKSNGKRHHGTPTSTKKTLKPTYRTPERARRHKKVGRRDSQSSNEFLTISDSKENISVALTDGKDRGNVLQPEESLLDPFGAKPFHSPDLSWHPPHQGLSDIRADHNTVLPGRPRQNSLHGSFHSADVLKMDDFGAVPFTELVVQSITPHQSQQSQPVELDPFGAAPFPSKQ

As for `CCNc1nc(Nc2cc(F)c(C(=O)N3CCOCC3)cc2OC)ncc1C(F)(F)F` [GNE-7915], the dTm is recorded as 1.69 K in experiment [1]; 1.40 K in experiment [2]; -0.0422 K in [3]; 0.10 K in experiment [4]; -0.0472 K in [5]; 4.85 K in [6]. Moreover, the dTm in experiment [7] is listed as -0.40 K; in experiment [8], -0.0645 K; in [9], 8.11 K; in experiment [10], 0.75 K; in experiment [11], -0.21 K. For the same molecule, the “# >5K” value in experiment [11] (setting [14]) was found to be 3. Further, the “S(5K)” value in experiment [11] (setting [15]) amounted to 0.029.

Consider `Cc1ccc(C(=O)Nc2ccc(CN3CCN(C)CC3)c(C(F)(F)F)c2)cc1C#Cc1cnc2[nH]ncc2c1` [GZD-824, reference compound], for which the dTm is recorded as 22.54 K in experiment [1]; 4.99 K in experiment [2]; 0.11 K in [4]; -2.15 K in experiment [5]; 4.99 K in [6]; 0.44 K in experiment [7]. Also, the dTm is given as 0.53 K in [8], 4.51 K in experiment [9], 2.07 K in experiment [10] and -0.37 K in [11]. Also, the “# >5K” value in [11] turned out to be 31. Moreover, the “S(5K)” value in experiment [11] is reported as 0.313.

With `Cc1ccc(C(=O)Nc2ccc(CN3CCN(C)CC3)c(C(F)(F)F)c2)cc1C#Cc1c[nH]c2ncnc(N3CCOCC3)c12` [Compound 1], the dTm in experiment [1] is 4.48 K; in [2], 3.53 K; in experiment [3] it was 1.60 K; in [4], 0.49 K; in experiment [5] it was -1.40 K; in [6] it was 3.91 K. In addition, the dTm in [7] came to 0.41 K; in experiment [8], 1.39 K; in [9], 7.81 K; in [10], 2.95 K; in experiment [11], 0.03 K. Also, the “S(5K)” value in [11] (number of kinases with thermal shift >5 K divided by total number of kinases screened) stood at 0.20; in [11] (setting [15]) it was 0.200. For the same molecule, in experiment [11] (setting [14]), the “# >5K” value is given as 21.

Consider `CNC(=O)c1cc(Oc2ccc(NC(=O)Nc3cc(C(C)(C)C)nn3-c3ccc4ncccc4c3)c(F)c2)ccn1` [Rebastinib, reference compound], for which the dTm in experiment [2] is reported as 9.06 K; in experiment [12], 0.33 K; in [3] it was 7.16 K; in [4] it was 0.87 K; in experiment [5], 0.55 K; in experiment [6] it was 6.14 K. Also, the dTm is on record as 0.77 K in experiment [7], 0.72 K in experiment [9] and 9.62 K in experiment [13].

In the case of `COc1cc2c(Oc3ccc(NC(=O)C4(C(=O)Nc5ccc(F)cc5)CC4)cc3F)ccnc2cc1OCCCN1CCOCC1` [Foretinib, reference compound], the dTm in experiment [2] came out at 0.40 K; in experiment [12], 3.48 K; in [3], 6.77 K; in experiment [4], 0.83 K; in experiment [5] it was 4.04 K; in experiment [6], 4.19 K. The dTm is listed as 0.92 K in experiment [7]; 1.01 K in [8]; 1.65 K in experiment [9]; 7.41 K in [13]; 0.47 K in experiment [10]. Also, the “# >5K” value in experiment [11] came to 30. The “S(5K)” value in experiment [11] amounted to 0.300.

As for `CN[C@@H]1C[C@H]2O[C@@](C)([C@@H]1OC)n1c3ccccc3c3c4c(c5c6ccccc6n2c5c31)C(=O)NC4` [Staurosporine], the dTm in experiment [1] is reported as 13.08 K; in [8] it was 2.20 K; in [9] it was 18.68 K; in experiment [13], 4.52 K.

As for `Cn1cc(-c2c[nH]c3ncnc(N4CCOCC4)c23)cc1C#N` [PFE-360], the dTm amounted to 2.46 K in experiment [1]; 0.68 K in experiment [2]; 0.47 K in experiment [3]; 0.00751 K in [4]; 3.25 K in experiment [5]; 1.08 K in [6]. Besides, the dTm in experiment [7] is given as 0.19 K; in [8], 0.08 K; in experiment [9], 14.15 K; in [10], 0.0435 K; in experiment [11], -0.51 K. The “# >5K” value in experiment [11] (setting [14]) was found to be 12. Also, the “S(5K)” value in [11] (setting [15]) was 0.118.

In the case of `Cc1ccc(C(=O)Nc2ccc(CN3CCN(C)CC3)c(C(F)(F)F)c2)cc1C#Cc1cnc2cccnn12` [Ponatinib, reference compound], the dTm is reported as 18.52 K in experiment [1], 4.72 K in experiment [2] and -0.27 K in [7]. The “# >5K” value in [11] stood at 28. For the same molecule, in experiment [11], the “S(5K)” value is 0.272.

With `C[C@@H]1CN(c2cc(-c3n[nH]c4ccc(OC5(C)CC5)cc34)ncn2)C[C@H](C)O1` [MLi2], the dTm in experiment [1] is listed as 0.51 K; in experiment [2] it was -0.0213 K; in experiment [3], -2.53 K; in [4], 1.04 K; in experiment [5], 0.53 K; in experiment [6] it was 1.21 K. For the same molecule, the dTm in [7] is reported as -0.55 K; in experiment [8] it was 0.19 K; in experiment [9] it was 2.01 K; in [10], -0.08 K; in [11] it was 0.12 K. Also, the “# >5K” value in experiment [11] (setting [14]) is given as 2. The “S(5K)” value in [11] (setting [15]) stood at 0.019.
